Here are results for one compound from patent publication US6458824B1, “Solid preparation” (Dainippon Pharmaceutical Co., Ltd., priority 1999, dated 2002).

Holding throughout (type): cell-based
In assay [1] the target is T1, human β2-adrenergic receptor (Homo sapiens, UniProt P07550).
T1 construct: expressed in transfected cells; host or cells: CHO (clone CHO/pKREX21-8)
As to the kind of experiment: cAMP accumulation in CHO/pKREX21-8 cells highly expressing human β2-adrenergic receptor. How it is done: (§1) The cells were peeled off by incubation with phosphate-buffered saline containing 0.5 mM EDTA at 37° C. for 10 minutes after the medium was removed. The CHO/pKREX10-36 cells were collected by centrifugation, and suspended in Hanks' buffer (ICN Biomedicals) containing 1 mM L-ascorbic acid and 1 mM 3-isobutyl-1-methylxanthine at the concentration of about 5×10^5 cells/ml. This suspension (100 μl) and a test compound were mixed in the same buffer (500 μl) and incubated at 37° C. for 30 minutes, followed by boiling for 5 minutes to terminate the reaction. After centrifugation of the reaction mixture, the amount of cAMP in the supernatant was measured by using cAMP EIA System (Amersham).
(§2) Similarly, the amount of cAMP was measured in the same manner by using CHO/pKREX21-8 for highly expressing human β2-adrenergic receptor, or by using CHO/pKREX23-30 for highly expressing human β1-adrenergic receptor instead of the CHO/pKREX10-36 for highly expressing human β3-adrenergic receptor.
On the technique in general: cAMP levels reflect the balance of adenylyl cyclase and phosphodiesterase activity.

The target of assay [2] is T2, human β1-adrenergic receptor (Homo sapiens, UniProt P08588).
T2 construct: expressed in transfected cells; host or cells: CHO (clone CHO/pKREX23-30)
T2 sequence (P08588 whole entry): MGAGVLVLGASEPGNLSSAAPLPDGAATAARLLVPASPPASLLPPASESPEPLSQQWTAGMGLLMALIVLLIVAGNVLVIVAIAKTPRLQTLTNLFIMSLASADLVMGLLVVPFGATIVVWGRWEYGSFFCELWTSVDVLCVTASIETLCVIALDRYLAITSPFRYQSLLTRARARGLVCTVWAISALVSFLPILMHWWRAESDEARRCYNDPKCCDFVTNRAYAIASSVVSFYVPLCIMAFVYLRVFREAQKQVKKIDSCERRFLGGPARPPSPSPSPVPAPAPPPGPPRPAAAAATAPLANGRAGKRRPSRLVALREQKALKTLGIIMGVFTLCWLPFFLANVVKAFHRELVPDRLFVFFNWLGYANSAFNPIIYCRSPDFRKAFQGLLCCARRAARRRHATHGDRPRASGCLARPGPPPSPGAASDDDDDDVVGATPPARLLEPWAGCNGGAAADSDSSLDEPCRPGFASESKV
The assay is described as follows: cAMP accumulation in CHO/pKREX23-30 cells highly expressing human β1-adrenergic receptor. The protocol: as §1, §2

For assay [3], the target named is T3, human β3-adrenergic receptor (Homo sapiens, UniProt P13945).
T3 construct: expressed in transfected cells; host or cells: CHO (clone CHO/pKREX10-36)
T3 sequence (P13945 whole entry): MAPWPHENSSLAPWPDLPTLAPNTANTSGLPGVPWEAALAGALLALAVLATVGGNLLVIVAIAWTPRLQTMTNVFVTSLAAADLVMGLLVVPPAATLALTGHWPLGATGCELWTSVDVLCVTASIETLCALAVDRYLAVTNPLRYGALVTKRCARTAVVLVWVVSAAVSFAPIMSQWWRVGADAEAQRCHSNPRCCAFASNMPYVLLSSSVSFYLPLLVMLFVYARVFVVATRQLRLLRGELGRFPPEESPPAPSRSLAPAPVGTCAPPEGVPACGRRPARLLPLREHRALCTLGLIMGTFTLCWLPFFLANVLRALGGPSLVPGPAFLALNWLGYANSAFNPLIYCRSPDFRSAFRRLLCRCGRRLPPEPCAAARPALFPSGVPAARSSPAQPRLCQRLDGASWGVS
As to the kind of experiment: cAMP accumulation in CHO/pKREX10-36 cells highly expressing human β3-adrenergic receptor. The protocol:
as §1

T1 sequence (P07550 whole entry): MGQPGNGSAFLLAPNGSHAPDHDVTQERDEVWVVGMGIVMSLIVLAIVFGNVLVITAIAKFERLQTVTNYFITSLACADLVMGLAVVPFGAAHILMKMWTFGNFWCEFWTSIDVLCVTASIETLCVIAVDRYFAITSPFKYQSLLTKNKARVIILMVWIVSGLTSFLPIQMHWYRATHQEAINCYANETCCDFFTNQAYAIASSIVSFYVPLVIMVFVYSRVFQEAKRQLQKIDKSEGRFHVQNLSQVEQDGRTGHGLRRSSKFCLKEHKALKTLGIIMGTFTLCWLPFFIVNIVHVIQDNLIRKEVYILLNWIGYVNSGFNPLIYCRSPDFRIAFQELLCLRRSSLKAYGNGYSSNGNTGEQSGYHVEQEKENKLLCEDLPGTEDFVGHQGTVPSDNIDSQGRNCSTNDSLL

By EC50 is commonly meant the concentration giving half of the maximal effect. A lower EC50 goes with an effect from little substance. On to `C[C@H](Cc1c[nH]c2c(OCC(=O)O)cccc12)NC[C@H](O)c1cccc(Cl)c1` [Compound A, [3-[(2R)-[[(2R)-(3-chlorophenyl)-2-hydroxyethyl]amino]propyl]-1H-indol-7-yloxy]acetic acid], for which the EC50 in assay [1] (cAMP accumulation, CHO/pKREX21-8) turned out to be 21 nM; in assay [2] (cAMP accumulation, CHO/pKREX23-30) it was 3.5 nM; in assay [3] (cAMP accumulation, CHO/pKREX10-36, 37° C. 30 minutes) it was 0.27 nM. Further, the “stimulating activity of human β2-adrenergic receptor (in words)” value in assay [1] (conclusion from Table 1) is “quite weak”. Also, the Emax was 45% in assay [1] (relative maximal response, 10^-5 M (−)-isoproterenol = 100%, read-out: β2-receptor I.A. (intrinsic activity)); 83% in assay [2] (relative maximal response, 10^-5 M (−)-isoproterenol = 100%, read-out: β1-receptor I.A. (intrinsic activity)); 110% in assay [3] (relative maximal response, 10^-5 M (−)-isoproterenol = 100%, read-out: β3-receptor I.A. (intrinsic activity)). Also, the “stimulating activity of human β1-adrenergic receptor (in words)” value in assay [2] (conclusion from Table 1) was “quite weak”. Further, the “stimulating activity of human β3-adrenergic receptor (in words)” value in assay [3] (conclusion from Table 1) is on record as “potent”.
